Structures are written as SMILES. Like-named read-outs stand apart in the source and are kept apart here.

The text below walks through data of patent publication US7291625B2, “Use of a vitamin combination for the treatment of pruritus and non-infective disorders involving itching and/or inflammation” (priority 1999, dated 2007).

One data set has as its system senile pruritus. Kind of data set: Clinical case reports: senile pruritus. It is filed as in vivo, human. From the text: (§1) It is advisable to take the medicament by the oral route, after the main meals, with abundant water (at least half a glass). In the event that the treatment is discontinued and the symptoms revert, it is necessary to start again from the 1st phase.
3rd case— subject with senile pruritus—The patient had been complaining for about 3 years of a diffused itching, which had become increasingly intense. At first, they consulted their physician, who addressed them to a dermatologist.
The patient was then treated by oral administration of 50 mg of nicotinamide+2.5 mg of riboflavin twice daily. […] Thereafter, the therapy was reduced to half the dosage, for 15 days a month.
4th case— subject with senile pruritus—The patient had been suffering for about 2 years and a half from a diffused continuous itching at the torso and on the upper and lower limbs.
The treatment was continued with half the dose for further 15 days and then it was finally discontinued.
The treatment with half the dose was continued for 15 days, and then it was discontinued.
3rd case— subject with senile pruritus—The patient had been suffering for about one year from a diffused itching. […] Thereafter, the diagnosis of senile itching was made.

The test system of data set [1] is uremic pruritus and sine materia pruritus forms. Kind of data set: Clinical experimentation: systemic niacin or niacinamide alone at pellagra dosage in pruritus forms. Particulars: for effectiveness in combating the pruritus forms: systemic administration alone at pellagra dosage, uremic and sine materia pruritus.
In another data set the test system is anal and vulvar pruritus. Description: Clinical case reports: anal and vulvar pruritus. The format is in vivo, human.
Description: as §1
As a first attempt, a gastroenterologist had been consulted for the anal itching, and thereafter a gynaecologist had been consulted for the vulvar itching.
The treatment was continued for 12 more days, and then it was reduced to half the dosage, for 15 days a month.
Then, the patient was given a therapy with 50 mg of nicotinamide twice daily, by oral administration, after the main meals. […] The patient continued to take 50 mg of nicotinamide daily, after dinner, for 15 days, and then they discontinued the treatment.
The treatment was then continued for 15 more days, with half the dosage, and then finally discontinued.

The conditions of data set [2]: systemic, 2 to 6 g per day, therapy of hyperlipidemia; cited from earlier work.
Another data set has as its system uremic pruritus. Description: Clinical case reports: uremic pruritus (renal dialysis, chronic renal failure or insufficiency). It is filed as in vivo, human. As for the experimental part:
In the treatment of uremic subjects who currently undergo dialysis the protocol is the same as for the 1st phase above, but the continuation of the treatment with half the dose will take place starting after each dialysis treatment (also in this case, after the meal and with abundant water).
Thereafter, the patient was treated with 50 mg of nicotinamide+2.5 mg of riboflavin twice daily, by oral administration. […] The patient continued the same therapy for about 15 days, and thereafter the dosage was reduced to one-half, the administration occurring after the dialysis treatment. […]
Lastly, they underwent an additional 3 hours dialysis treatment each week, with carbon filter, for four weeks on end.
The treatment was started with 50 mg of nicotinamide twice daily, to be taken orally after the main meals. […] The patient continued to take 50 mg of nicotinamide after dinner for 15 more days, and then they took 50 mg of the same agent only on the day of the dialytic treatment. […]

For data set [3], the system named is uremic pruritus and sine materia pruritus forms. Particulars: human, in vivo.

In the case of `NC(=O)c1cccnc1` [nicotinamide], in the data set on senile pruritus (series 2 case 4: senile pruritus, 50 mg nicotinamide alone twice daily oral), the “pruritus after 40 days” value is listed as “pruritus was quite mild”. Also, the “itching about 10 days after discontinuation” value was “itching had started again to increase” in the data set with senile pruritus (series 2 case 4, nicotinamide alone) and “itching had started to increase again” in the data set with uremic pruritus (series 2 case 5, nicotinamide alone). The “itching after 45 days” value in the data set with senile pruritus (series 3 case 3: senile pruritus, 50 mg nicotinamide alone twice daily oral) is reported as “itching had only slightly decreased”. In addition, the “itching at subsequent monthly checks” value is reported as “diffused moderate itching” in the data set with senile pruritus (series 3 case 3, nicotinamide therapy continued); “still complained of a moderate itching” in the data set with anal and vulvar pruritus (series 3 case 4, still taking 50 mg/day nicotinamide). Further, the “effectiveness in combating the pruritus forms” value in data set [1] is reported as “not appreciably effective”. For the same molecule, the “side effects of flushing and itching” value in data set [1] (systemic administration alone at the dosage used for prevention and therapy of pellagra) was “does not lead to the undesired side effects of flushing and itching”. In the data set on anal and vulvar pruritus (series 2 case 3: anal vulvar pruritus, 50 mg nicotinamide alone twice daily oral), the “itching after 60 days” value was “itching was moderate”. The “itching 15 days after discontinuation” value in the data set on anal and vulvar pruritus (series 2 case 3, nicotinamide alone) was “itching started to increase again”; with uremic pruritus (series 2 case 2, nicotinamide alone), “itching had started again to gradually increase”. The “symptoms after 2 months” value with anal and vulvar pruritus (series 3 case 4: anal and vulvar pruritus, 50 mg nicotinamide alone twice daily oral) is reported as “a decrease of the symptoms was detected”. In data set [2], the “adverse side effects at large doses” value was “adverse side effects, including gastrointestinal disturbances (such as abdominal pain and nausea) hepatotoxicity, and, above all, flushing”. For the same molecule, the “pruritus after one month and a half” value with uremic pruritus (series 2 case 1: person on renal dialysis, 50 mg nicotinamide alone twice daily oral) was “pruritus had sensibly decreased”. Further, the “itching at check-up after one month” value in the data set with uremic pruritus (series 2 case 1, nicotinamide alone, reduced to 50 mg on dialysis days) is listed as “still complained of some moderate itching”. In the data set with uremic pruritus (series 2 case 2: person on renal dialysis, 50 mg nicotinamide alone twice daily oral), the “symptom after 45 days” value is “appreciable reduction of the symptom”. Also, the “itching after 35 days” value in the data set on uremic pruritus (series 2 case 5: chronic renal insufficiency, 50 mg nicotinamide alone twice daily oral) is listed as “some moderate itching”. Besides, in the data set with uremic pruritus (series 3 case 1: person on renal dialysis three times weekly, 50 mg nicotinamide alone twice daily oral), the “itching after 65 days” value was “itching had only become milder without disappearing”. Also, in the data set on uremic pruritus (series 3 case 1, 50 mg nicotinamide after each dialysis treatment), the “pruritus at check-ups every 2 months” value is recorded as “persistent pruritus of a reduced intensity”. The “itching after 50 days” value with uremic pruritus (series 3 case 2: renal insufficiency, 50 mg nicotinamide alone twice daily oral) was “itching had become milder, without totally disappearing”. Besides, the “itching at subsequent periodical checks” value in the data set with uremic pruritus (series 3 case 2, continued 50 mg/day nicotinamide) is listed as “moderate itching diffused on the whole body”.

For the molecule `O=C(O)c1cccnc1` [niacin, 3-pyridinecarboxylic acid], the “effectiveness in combating the pruritus forms” value in data set [1] is reported as “not appreciably effective”. The “adverse side effects at large doses” value in data set [2] is “adverse side effects, including gastrointestinal disturbances (such as abdominal pain and nausea) hepatotoxicity, and, above all, flushing”. The “side effects of flushing and itching” value in data set [3] is “does not lead to the undesired side effects of flushing and itching”.
